In patent publication US11365201B2, “Chlorotonil derivatives” (HELMHOLTZ-ZENTRUM FÜR INFEKTIONSFORSCHUNG GMBH, priority 2017, dated 2022):
In brackets after ≈: the same amount, converted by molar mass.

Tests used:
[1] = Determination of water solubility, Method 2 (HPLC-MS standard curve, saturated solution in water); format: physicochemical; conditions: thermodynamic from solid; saturated solution in water, HPLC-MS standard curve
Procedure: (§1) Determination of Water Solubility
A standard curve with 10 calibration points of the compound of interest is plotted using HPLC-MS and serial dilution. The dilutions and stock solutions were prepared in THF as a solvent. Following the measurements, a saturated solution in water of the compound in study was also measured. Upon plotting the standard curve using the peak areas of the MS peaks, the water samples were plotted along the curve and the solubility was then calculated.

[2] = test system: mature stage (stage IV-V) gametocytes; conditions: read-out: mean IC50, gametocytocidal activity, ATP bioluminescence; cited from earlier work
[3] = test system: L-929 (murine fibroblasts); assay: Cytotoxicity assay (MTT, 5 d); format: cell-based; conditions: Mus musculus, L929, 120 h
Procedure: Cytotoxicity Assay The murine fibroblast cell line L-929 was obtained from the German Collection of Microorganisms and Cell Cultures (DSMZ) and maintained under conditions recommended by the depositor. Cells were seeded at 6×10^3 cells per well of sterile 96-well plates in 180 μL complete medium and treated with the compounds in serial dilution after 2 h of equilibration. After 5 d, viability was assessed by the MTT method. After 1.5 h incubation with 0.5 mg/mL MTT reagent, cells were washed with PBS and 100 μL of 2-propanol/10 N HCl (250:1) was added. The absorbance at 570 nm was determined on a microplate reader and cell viability was expressed as percentage relative to the respective solvent control. Half-inhibitory concentrations (IC50) were determined by sigmoidal curve fitting.

Plasmodium falciparum = conditions: cited from earlier work
[4] = test system: chloroquine-sensitive laboratory strains of Plasmodium falciparum; conditions: read-out: mean IC50, chloroquine-sensitive laboratory strains of Plasmodium falciparum; in vitro, first screening; cited from earlier work
[5] = test system: P. falciparum 3D7 (sensitive strain); assay: Antiplasmodial in vitro drug sensitivity assay (HRP2-ELISA); format: cell-based; conditions: Plasmodium falciparum, 3D7, read-out: IC50 against P. falciparum 3D7
Procedure: (§2) Two laboratory strains of P. falciparum, the chloroquine sensitive 3D7 and the multi-resistant Dd2 were kept in continuous culture as previously described (Trager and Jensen 1976). In brief, parasites were kept in complete culture medium (RPMI 1640, 25 mM HEPES, 2 mM L-glutamine, 50 μg/ml gentamicin and 0.5% w/v AlbuMAX) at 37° C., 5% CO2 and 5% oxygen at 5% hematocrit with daily change of medium. Synchronization was performed with sorbitol twice a week (Lambros and Vanderberg 1979).
(§3) In Vitro Drug Sensitivity Assay
(§4) All compounds were dissolved in DMSO at stock dilutions between 25 and 100 mM; the reference drug chloroquine diphosphate (MW: 515.86) was diluted in distilled water and DMSO, respectively. […] Antiplasmodial activity of the different compounds was tested in a drug sensitivity assay against the two laboratory strains using the histidine-rich protein 2 (HRP2) assay as described previously (Noedl 2005). In brief: 96 well plates were pre-coated with the different compounds in a threefold dilution before ring stage parasites were added in complete culture medium at a hematocrit of 1.5% and a parasitemia of 0.05% in a total volume of 225 μl per well. After three days of incubation plates were frozen until analyzed by HRP2-ELISA. All compounds were evaluated in duplicate in at least two independent experiments.

[6] = test system: P. falciparum Dd2 (resistant strain); assay: as above; format: cell-based; conditions: Plasmodium falciparum, DD2, read-out: IC50 against P. falciparum Dd2
Procedure: as §2, §3, §4

[7] = mice; cited from earlier work
[8] = test system: chloroquine-resistant laboratory strains of Plasmodium falciparum; conditions: read-out: mean IC50, chloroquine-resistant laboratory strains of Plasmodium falciparum; in vitro, first screening; cited from earlier work
[9] = Determination of water solubility, Method 1 (suspension in tap water, weighing); format: physicochemical; conditions: thermodynamic from solid, room temperature, 18 h stirring, triplicates
Procedure: as §1
10 mg of compound was suspended in 1 L of tap water and the solution was stirred at room temperature for 18 h. Upon completion, solution was sonicated for another hour, centrifuged and the supernatant was separated from the precipitate. Both aliquots were lyophilized, and weighed. This procedure was performed in triplicates.

[10] = test system: clinical isolates from Gabon; conditions: read-out: median IC50, clinical isolates from Gabon; in vitro; cited from earlier work
E. coli TolC (+PMBN) = assay: Antimicrobial assay, MIC by microbroth dilution with PMBN; format: cell-based; conditions: 16 h, 3 μg/mL polymyxin B nonapeptide (PMBN) added
Procedure: Bacterial strains used in susceptibility assays (minimum inhibitory concentrations, MIC) were either part of our internal strain collection or were purchased form the German Collection of Microorganisms and Cell Cultures (DSMZ). All compounds were prepared as DMSO stocks and MIC values were determined in standard microbroth dilution assays. Overnight cultures of bacteria were diluted in cation-adjusted Muller-Hinton broth (BBL™, BD) and were adjusted to approximately 10^5 cfu/mL. For the E. coli culture, 3 μg/mL of polymyxin B nonapeptide (PMBN) was added to increase permeability of the outer membrane as chlorotonils were previously shown to not penetrate into Gram-negative cells. Bacteria were grown in the presence of the derivatives in serial dilution for 16 h at their optimal growth temperature. MIC values were determined according to CLSI guidelines (antibiotic concentration at which no visible bacterial growth is observed).

Q: What does the source list for `CC1=C[C@@H](C)C2C3C(=O)C(Cl)(Cl)C(=O)[C@H](C)C(=O)O[C@@H](C)/C=C/C=C\[C@@H](C)[C@@H]3C=C[C@@H]2C1` (stereo partly drawn) [Chlorotonil A (ChA), Chlorotonil A]?
A: solubility [1]: 1.8 µg/mL (≈ 3.75 µM); IC50 [2]: 29.6 nM; IC50 [3]: 1100 nM; Development of resistant parasites in vitro by drug pressure (Plasmodium falciparum): not possible to develop resistant parasites in vitro by drug pressure; IC50 [4]: 9 nM; IC50 [5]: 18.7 nM; IC50 [6]: 20.7 nM; oral availability [7]: orally available; IC50 [8]: 18 nM; solubility at 18 h [9]: 3 µg/mL (≈ 6.26 µM); IC50 [10]: 15.2 nM; MIC E. coli TolC (+PMBN) (E. coli TolC (+PMBN)): 0.4 µg/mL
